Where two headings read alike, the source gives them in different places.
Tests used:
[1] = target: human α2β3γ2 GABAARs (benzodiazepine site) (Homo sapiens (Human), UniProt P18507+P47869); test: In vitro radioligand binding assay ([3H]Ro15-1788 displacement), α2-GABAAR Ki
Procedure: The affinity (Ki) of compounds for the benzodiazepine site of human recombinant GABAARs was measured by their ability to inhibit the binding of the selective benzodiazepine antagonist [^3H]Ro15-1788 ([^3H] flumazenil).
Mouse L(tk^−) cells stably expressing human α1β3γ2, α2β3γ2, α3β3γ2, α5β3γ2 GABAARs were generated by transfection of the individual subunits in the dexamethasone-inducible expression vector pMSGneo in mouse L(tk^−) cells (Hadingham et al., 1993, Mol. Pharmacol. 43:970-975 and 1993, Mol. Pharmacol. 44:1211-1218).
L(tk^−) cells stably expressing human α1β3γ2, α2β3γ2, α3β3γ2, α5β3γ2 GABAARs were maintained in DMEM F12 medium supplemented with 10% Foetal Bovine Serum, 1% Penicillin/Streptomycin and 1 mg/mL Geneticin G418 in an incubator at 37° C. with a humidified atmosphere with 5% CO2. Dexamethasone was added to the culture medium to induce GABAAR expression.
L(tk−) cells were harvested and membranes were prepared for each receptor combination in either TE buffer (10 mM Tris·CI/0.1 mM EDTA, pH 7.5) or phosphate buffer (K2PO4 10 mM, pH 7.0) (Hadingham et al. (1992) Proc. Natl. Acad. Sci. USA; 89 (14): 6378-82). Protein concentration, receptor expression and the Kd of [^3H]Ro15-1788 were determined before Ki value of the compounds were evaluated. For Kd evaluation, saturation binding curves were obtained by incubating membrane with various concentrations of [^3H]Ro15-1788 (82.5 Ci/mM), with nonspecific binding measured in the presence of 1-3 μM TP003.
For Ki evaluation, cell membranes were incubated with 4 nM [^3H]Ro15-1788 along with a range of concentrations of test compound. Nonspecific binding was determined using 1-3 μM TP003. All incubations were performed for 1 hour at 4° C. in assay buffer. The total assay volume was 0.5 mL, containing 40 μg/well α1β3γ2, 30 μg/well α2β3γ2, 40 μg/well α3β3γ2 and 30 μg/well for α5β3γ2 of membrane protein. Incubations were terminated by filtration and washing with ice cold Tris-HCl buffer (50 mM, pH=7.4) over Whatman GF/B filters and the radioactivity of the filters was measured using liquid scintillation counting.
The % inhibition of [^3H]Ro15-1788 binding was plotted as a function of compound concentration and the IC50 calculated. From the IC50, the affinity (Ki) was calculated using the method of Cheng and Prusoff using the Kd values obtained for [^3H]Ro15-1788.

human α2β3γ2 GABAARs = test: In vitro electrophysiological recording assay (automated patch-clamp), α2-GABAAR relative efficacy; assay type: cell-based; details: % efficacy normalised to diazepam; GABA EC10-20; concentration generally >= 100 times Ki
Procedure: The efficacy of modulators was evaluated using the automated patch-clamp platforms QPatch16 (Sophion, Copenhagen, Denmark) or SyncroPatch 384PE (Nanion, Germany).
For QPatch electrophysiology testing L(tk^−) cells stably expressing human α1β3γ2, α2β3γ2, α3β3γ2, α5β3γ2 GABAARs were used. HEK293 cells stably expressing human α1β3γ2L, α2β3γ2L, α3β3γ2L and α5β3γ2L GABAARs were used for the SyncroPatch 384PE experiments.
All experiments were carried out at room temperature (20-22° C.) using a standard whole cell procedure and physiological solutions. Gigaseals were formed upon execution of a combined suction/voltage protocol with subsequent increased suction leading to the whole-cell configuration.
The currents recorded were acquired at either 1 KHz or 2 KHz and filtered using a Bessel filter. Whole-cell currents were measured at a holding potential of-65 mV (QPatch) or −80 mV (SyncroPatch).
For QPatch experiments, the extracellular solution contained of: 145 mM NaCl, 4 mM KCl, 1 mM MgCl2, 2 mM CaCl2), 10 mM HEPES, 10 mM D-glucose (pH 7.4), and the intracellular solution consisted of: 96 mM KCl, 28 mM CsCl, 25 mM KOH, 4.3 mM CaCl2), 1.4 mM MgCl2, 10 mM EGTA, 10 mM HEPES, 3 mM MgATP (pH 7.2). The osmolarities of the extracellular and intracellular solutions were 305 and 295 mOsm respectively.
For SyncroPatch experiments, the extracellular recording solution contained: 140 mM NaCl, 4 mM KCl, 2 mM CaCl2), 1 mM MgCl2, 10 mM HEPES, 5 mM glucose (pH 7.4 with NaOH and osmolarity of c. 300-310 mOsm). The intracellular recording solution consisted of: 90 mM KCl, 50 mM KF, 1.5 mM MgCl2, 11.1 mM EGTA and 10 mM HEPES (pH 7.2 with KOH and osmolarity of c. 300 mOsm). 2 mM of NaATP was added to the intracellular solution on the day of testing.
The effects of modulators were evaluated in the presence of a submaximal GABA concentration, giving typically less than 30% activation of the response elicited by a saturating GABA concentration. To check and ensure baseline current stability before compound addition, two to five consecutive applications of GABA EC10-20 separated by wash steps were performed before compound addition. The test compound was applied 1 min at least prior to co-application with GABA EC10-20. Following a further wash step, a saturating concentration of GABA was applied at the end of each recording, allowing the accurate evaluation for each cell of the percentage baseline activation elicited by the submaximal GABA applied.
The compounds were first dissolved in DMSO as a 10 mM stock and then further diluted to the testing concentrations so that the final DMSO concentration in the extracellular recording solution was 0.1% (QPatch) or 0.2% (SyncroPatch).
The % efficacy of modulators was determined from the GABA elicited currents recorded in the presence and absence of the test compound, using the formula:
[((compound peak current−leak)−(GABA peak current-leak))/(GABA peak current−leak)]*100,
where ‘leak’ is the leak baseline current at the holding potential, ‘compound peak current’ is the current elicited by co-application of compound and GABA, and ‘GABA peak current’ is the current elicited by GABA alone at the last GABA application before compound addition. The results were presented as ‘relative efficacy’ for each compound generally at a concentration equal or higher than 100 times their determined Ki. The relative efficacy of a compound was calculated by normalising its % efficacy to the corresponding % efficacy of diazepam that was separately determined.

Chain of human α2β3γ2 GABAARs (benzodiazepine site) (P47869 29-451): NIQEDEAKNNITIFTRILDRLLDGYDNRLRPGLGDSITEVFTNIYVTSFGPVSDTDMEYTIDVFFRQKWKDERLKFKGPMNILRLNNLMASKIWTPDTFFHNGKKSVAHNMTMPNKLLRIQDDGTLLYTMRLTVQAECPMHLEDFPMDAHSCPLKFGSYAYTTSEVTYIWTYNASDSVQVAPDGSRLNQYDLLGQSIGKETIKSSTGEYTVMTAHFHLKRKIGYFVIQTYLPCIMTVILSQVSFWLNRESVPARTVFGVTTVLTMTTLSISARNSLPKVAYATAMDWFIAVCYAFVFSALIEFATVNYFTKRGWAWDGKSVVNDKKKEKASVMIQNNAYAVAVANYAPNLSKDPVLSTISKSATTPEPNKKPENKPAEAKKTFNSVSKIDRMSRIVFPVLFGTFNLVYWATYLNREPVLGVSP
Chain of human α2β3γ2 GABAARs (benzodiazepine site) (P28472 26-473 partner): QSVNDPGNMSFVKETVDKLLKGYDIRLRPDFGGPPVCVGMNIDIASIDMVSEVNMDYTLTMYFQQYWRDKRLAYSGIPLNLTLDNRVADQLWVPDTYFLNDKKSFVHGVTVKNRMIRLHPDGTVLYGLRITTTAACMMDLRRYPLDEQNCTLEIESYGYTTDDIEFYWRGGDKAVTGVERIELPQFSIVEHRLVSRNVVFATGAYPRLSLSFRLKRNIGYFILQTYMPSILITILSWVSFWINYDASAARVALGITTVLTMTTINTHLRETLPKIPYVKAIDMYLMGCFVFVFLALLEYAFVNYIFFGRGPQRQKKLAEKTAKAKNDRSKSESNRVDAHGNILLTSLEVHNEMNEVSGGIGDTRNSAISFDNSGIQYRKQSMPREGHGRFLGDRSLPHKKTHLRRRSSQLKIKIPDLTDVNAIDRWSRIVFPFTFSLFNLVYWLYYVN
Chain of human α2β3γ2 GABAARs (benzodiazepine site) (P18507 40-475): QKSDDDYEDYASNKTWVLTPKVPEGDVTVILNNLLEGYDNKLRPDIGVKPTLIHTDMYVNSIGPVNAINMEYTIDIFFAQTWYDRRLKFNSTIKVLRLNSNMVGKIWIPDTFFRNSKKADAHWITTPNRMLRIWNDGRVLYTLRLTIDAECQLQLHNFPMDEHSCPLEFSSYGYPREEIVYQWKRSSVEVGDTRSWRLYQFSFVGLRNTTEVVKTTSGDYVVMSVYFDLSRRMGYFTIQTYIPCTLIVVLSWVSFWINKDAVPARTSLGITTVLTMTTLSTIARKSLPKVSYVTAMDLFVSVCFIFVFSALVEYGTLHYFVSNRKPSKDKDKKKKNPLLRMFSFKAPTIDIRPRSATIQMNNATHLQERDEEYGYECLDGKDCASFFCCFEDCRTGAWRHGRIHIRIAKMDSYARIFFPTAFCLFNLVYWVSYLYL

Structure (SMILES) | Ki [1] [nM] | α2-GABAAR Relative Efficacy (vs. Diazepam) (human α2β3γ2 GABAARs) | Ki ([1]; L(tk-) cell membranes, 4 nM [3H]Ro15-1788, read-out: α2-GABAAR Ki) [nM]
CCCNC(=O)c1c(N)c2cccc(-c3cnccc3OCC)c2[nH]c1=O [Example 19, 4-Amino-8-(4-ethoxypyridin-3-yl)-2-oxo-N-propyl-1,2-dihydroquinoline-3-carboxamide] | 21.5 | 0.23 | 
CCCNC(=O)c1c(N)c2cccc(-c3cnccc3OC(C)C)c2[nH]c1=O [Example 20, 4-Amino-8-(4-isopropoxypyridin-3-yl)-2-oxo-N-propyl-1,2-dihydroquinoline-3-carboxamide] |  | 0.16 | 245
CCCNC(=O)c1c(N)c2cccc(-c3cnccc3COC)c2[nH]c1=O [Example 21, 4-Amino-8-(4-(methoxymethyl)pyridin-3-yl)-2-oxo-N-propyl-1,2-dihydroquinoline-3-carboxamide] | 29.8 | 0.12 | 
CCCNC(=O)c1c(N)c2cccc(-c3cncc(F)c3)c2[nH]c1=O [Example 22, 4-Amino-8-(5-fluoro-3-pyridyl)-2-oxo-N-propyl-1H-quinoline-3-carboxamide] | 13.6 | 0.19 | 
CCCNC(=O)c1c(N)c2cccc(-c3cncc(OC)c3C)c2[nH]c1=O [Example 24, 4-Amino-8-(5-methoxy-4-methylpyridin-3-yl)-2-oxo-N-propyl-1,2-dihydroquinoline-3-carboxamide] | 4.11 | 0.21 | 
CCCNC(=O)c1c(N)c2cccc(-c3cncc(OCC)c3)c2[nH]c1=O [Example 26, 4-Amino-8-(5-ethoxypyridin-3-yl)-2-oxo-N-propyl-1,2-dihydroquinoline-3-carboxamide] | 5.58 | 0.15 | 
CCCNC(=O)c1c(N)c2cccc(-c3cncc(OC4CC4)c3)c2[nH]c1=O [Example 28, 4-Amino-8-(5-cyclopropoxypyridin-3-yl)-2-oxo-N-propyl-1,2-dihydroquinoline-3-carboxamide] | 9.07 | 0.2 | 
CCCNC(=O)c1c(N)c2cccc(-c3cncc(OCc4ccc(F)cn4)c3)c2[nH]c1=O [Example 29, 4-Amino-8-(5-((5-fluoropyridin-2-yl)methoxy)pyridin-3-yl)-2-oxo-N-propyl-1,2-dihydroquinoline-3-carboxamide] | 6.66 | 0.22 | 
CCCNC(=O)c1c(N)c2cccc(-c3ccc(CO)nc3)c2[nH]c1=O [Example 30, 4-Amino-8-[6-(hydroxymethyl)-3-pyridyl]-2-oxo-N-propyl-1H-quinoline-3-carboxamide] | 4.76 | 0.43 | 
CCCNC(=O)c1c(N)c2cccc(-c3ccncc3)c2[nH]c1=O [Example 31, 4-Amino-2-oxo-N-propyl-8-(pyridin-4-yl)-1,2-dihydroquinoline-3-carboxamide] | 3.28 | 0.24 | 
CCCNC(=O)c1c(N)c2cccc(-c3cc(C)ncc3F)c2[nH]c1=O [Example 33, 4-Amino-8-(5-fluoro-2-methyl-4-pyridyl)-2-oxo-N-propyl-1H-quinoline-3-carboxamide] | 0.67 | 0.39 | 
CCCNC(=O)c1c(N)c2cccc(-c3cc(OCC)ncc3F)c2[nH]c1=O [Example 35, 4-Amino-8-(2-ethoxy-5-fluoropyridin-4-yl)-2-oxo-N-propyl-1,2-dihydroquinoline-3-carboxamide] | 2.45 | 0.52 | 
CCCNC(=O)c1c(N)c2cccc(-c3ccncn3)c2[nH]c1=O [Example 36, 4-Amino-2-oxo-N-propyl-8-pyrimidin-4-yl-1H-quinoline-3-carboxamide] | 3.69 | 0.05 | 
CCCNC(=O)c1c(N)c2cccc(-c3ncncc3OC)c2[nH]c1=O [Example 37, 4-Amino-8-(5-methoxypyrimidin-4-yl)-2-oxo-N-propyl-1H-quinoline-3-carboxamide] | 7.55 | 0.78 | 
CCCNC(=O)c1c(N)c2cccc(-c3ccnc(C)n3)c2[nH]c1=O [Example 38, 4-Amino-8-(2-methylpyrimidin-4-yl)-2-oxo-N-propyl-1,2-dihydroquinoline-3-carboxamide] | 1.09 | 0.18 | 
CCCNC(=O)c1c(N)c2cccc(-c3nc(C)ncc3C#N)c2[nH]c1=O [Example 39, 4-Amino-8-(5-cyano-2-methyl-pyrimidin-4-yl)-2-oxo-N-propyl-1H-quinoline-3-carboxamide] | 9.31 | −0.06 | 
CCCNC(=O)c1c(N)c2cccc(-c3nc(N)ncc3F)c2[nH]c1=O [Example 41, 4-Amino-8-(2-amino-5-fluoropyrimidin-4-yl)-2-oxo-N-propyl-1,2-dihydroquinoline-3-carboxamide] | 0.4 | 0.13 | 
CCCNC(=O)c1c(N)c2cccc(-c3nc(OCCOC)ncc3F)c2[nH]c1=O [Example 43, 4-Amino-8-(5-fluoro-2-(2-methoxyethoxy)pyrimidin-4-yl)-2-oxo-N-propyl-1,2-dihydroquinoline-3-carboxamide] | 1.47 | 0.14 | 
CCCNC(=O)c1c(N)c2cccc(-c3cncnc3OC)c2[nH]c1=O [Example 44, 4-Amino-8-(4-methoxypyrimidin-5-yl)-2-oxo-N-propyl-1H-quinoline-3-carboxamide] | 18.6 | 0.30 | 
CCCNC(=O)c1c(N)c2cccc(-c3cnccn3)c2[nH]c1=O [Example 45, 4-Amino-2-oxo-N-propyl-8-(pyrazin-2-yl)-1,2-dihydroquinoline-3-carboxamide] | 5.04 | 0.11 | 

— US20250197368A1 (priority 2020, published 2025)
